Experimental data reported in patent publication US8835644B2, “Broad spectrum benzothiophene-nitrothiazolide and other antimicrobials” (University of Virginia Patent Foundation, priority 2009, dated 2014).
In brackets after ≈: the same amount, converted by molar mass.

Assays:
[1] = reference (33); cited from earlier work
[2] = tested on: S. aureus and S. epidermidis strains; assay: MIC by microdilution in TSB, staphylococcal strains; format: cell-based, Staphylococcus epidermidis; conditions: Staphylococcus aureus; staphylococcal strains incl. MRSA S. aureus, microdilution in TSB; read-out: MIC
Experimental: Minimal inhibitory concentration testing of NTZ was done in sterile round bottom 96 well microtiter polystyrene plates (Corning Inc., Corning, N.Y.) by microdilution. Tizoxanide TIZ (deacetylated form of NTZ), denitro-NTZ (TIZ without 5-nitro group) and amoxanide AMIX (TIZ-ethylamine) were also tested. Bacteria were grown overnight and suspended in fresh TSB to an OD600 of 0.01 and 100 μl were dispensed into wells with the first well containing 200 μA NTZ and other antibiotics (DMSO control) were added to well one and serially diluted from 32 μg/ml. All compounds were tested in triplicate and plates were read visually or with a plate reader (Molecular Devices) at 8, 12 and at 24 h. MIC was determined as the first well in which no visible bacterial growth was noted relative to controls. Drug effects on aerobic growth were determined in 125 ml flasks containing 25 ml of TSB medium and following inoculation (detailed above), flasks were on a gyrorotary shaker (200 rpm) at 37° C. Final concentrations of NTZ were 0, 10 and 25 μg/ml and samples were removed at hourly intervals and absorbance determined at 600 nm.

[3] = tested on: S. epidermidis strain 9142; assay: Biofilm determination, crystal violet, S. epidermidis; format: cell-based, Staphylococcus epidermidis; conditions: compared with NTZ
Experimental: Staphylococcal strains were cultured overnight in TSB at 37° C. with shaking, diluted in fresh medium to an OD600 of 0.01 and 200 W was dispensed into sterile flat bottom polystyrene 96 well microtiter plates (Costar 3596, Corning Inc.). […] Each compound and dilution was tested in triplicate. The plates were incubated overnight at 37° C. in a humidified incubator, without shaking and both growth and biofilm accumulation were determined at 16 h.
Following recording of turbidities, the culture medium was aspirated and the wells were washed three times with distilled water, blotted on paper towels, and fixed with 75% ethanol for 10 minutes.
To visualize biofilm material, 0.5% crystal violet was added to each well and after 5 minutes was removed and the wells washed three times with distilled water. Plates were read using a microplate reader at a wavelength of 570 nm. The dye was then extracted by adding 200 W of 95% ethanol, and the absorbance was read again at 570 nm. All assays were performed in triplicate and the mean and standard deviation determined. Generally, the ethanol-solubilized crystal violet was more reliable and these determinations are reported throughout.

[4] = Zn2+ chelation, spectrophotometric and 1H NMR; format: physicochemical; conditions: 1H NMR in DMSO-d6, ratios 1:1, 1:2, 2:1, up to 72 h
Experimental: To test direct binding of Zn^2+ by NTZ in solution, we tested a range of concentrations of both NTZ and TIZ and scanned the solutions spectrophotometrically using an OLIS Cary-14 (OLIS Instruments Co., Bogart Ga.). Absolute spectra were recorded over a UV/Vis range from 220 nm to 700 nm. Spectral shifts in the 418 nm range would be attributable to changes in resonance within the thiazole ring that would result if Zn^2+ were coordinated by NTZ (9).
Chelation experiments were also performed utilizing NTZ and TIZ in DMSO-d6 (0.5 mL) with ZnCl2 using a 300 MHz Varian MercuryPlus spectrometer. Specifically, three ratios of NTZ to Zn^2+ were investigated (1:1, 1:2, 2:1) where NTZ was held constant (4 mg, 13 μmoles) while varying ZnCl2 (1.8 mg, 13 μmoles or 3.5 mg, 26 μmoles) or NTZ (8 mg, 26 μmoles) with ZnCl2 (1.8 mg, 13 μmoles). Three ratios of TIZ to Zn^2+ were also investigated (1:1, 1:2, 2:1) where TIZ was held constant (4 mg, 15 μmoles) while varying ZnCl2 (2.1 mg, 15 μmoles or 4.1 mg, 30 μmoles) or TIZ (8 mg, 30 μmoles) with ZnCl2 (2.1 mg, 15 μmoles). ^1H NMR spectra were then obtained after mixing for 5 min, 24 h, 48 h, and 72 h at room temperature. Any chelation event would be evidenced by shifting or broadening of the thiazole and benzene protons as well as loss of the amide proton.

In the case of `O=C(Nc1ncc([N+](=O)[O-])s1)c1ccccc1O` [TIZ], the “Bound to plasma proteins” value [1] is given as 97.5%, the MIC [2] is given as 8 to 16 µg/mL (≈ 30.2 to 60.3 µM) and the “Inhibition of biofilm production” value [3] is given as “equivalent results”. The “Chelation with ZnCl2” value [4] was “no chelation”.
